Data set [1] has as its system T. cruzi Tulahuen strain expressing β-galactosidase. The experiment in a line: T. cruzi primary screening at three fixed concentrations. Type of data set: cell-based. Here is the method:
T. cruzi parasites from the Tulahuen strain (discrete typing unit (DTU) VI) expressing β-galactosidase were maintained in culture by the infection of LLC-MK2 cells in DMEM supplemented with 2% FBS and 1% penicillin–streptomycin–glutamine (PSG), as described in [52]. When free-swimming trypomastigotes were released to the culture medium, they were centrifuged for 7 min at 2500 rpm and allowed to swim out of the pellet. Trypomastigotes were used to maintain the parasite cycle, or for the performance of the antiparasitic assays.
[…] Conditions were tested in triplicate for every concentration. Z-values varied between 0.81 and 0.92 in the different plates analyzed. Selected compounds (34.6% potential hit rate) were further analyzed via standard growth inhibition assays. The Z-values of dose–response assays correlated with those previously reported. For both assays, Vero cells and trypomastigotes from the Tulahuen T. cruzi strain expressing β-galactosidase were harvested, centrifuged, and resuspended in DMEM without phenol red supplemented with 1% PSG, 2% FBS, 1 mM sodium pyruvate, and 25 mM HEPES. Vero cells and trypomastigotes were counted, diluted at a concentration of 1 × 10^6 cells/mL each, and mixed 1:1 (v/v). Then, 100 μL of that mixture was added per well to the plates already containing the compounds. Each well contained 50,000 host cells and 50,000 parasites, i.e., multiplicity of infection (MOI) = 1. BNZ was used as control of maximal drug growth inhibition in each round, whereas each plate contained its own negative control (maximum parasite growth; Vero cells plus parasites without drugs) and positive control (minimum parasite growth; trypomastigote forms alone marking an enzymatic zero time or baseline galactosidase activity). After four days at 37 °C, 50 µL of a PBS solution containing 0.25% NP40 and 500 µM chlorophenol red-β-D-galactopyranoside (CPRG) substrate were added per well [32]. Plates were incubated at 37 °C for 4 h, and their absorbance read out at 590 nm using an Epoch Gene5 spectrophotometer.
(§1) Absorbance values derived from the anti-T. cruzi assays and fluorescence values from the anti-P. falciparum and cell toxicity assays were normalized to the controls. In the primary screening at three fixed doses, the compounds’ inhibitory activity was expressed as a percentage of the negative control (100% parasitic growth). In dose–response assays, the compounds’ IC50 and TC50 values were determined with GraphPad Prism 7 software (version 7.00, 2016), using a non-linear regression analysis model defined by the following equation: Y=100 ÷(1+10^((LogIC50−X)×HillSlope))

The test system of a further data set is P. falciparum 3D7. The experiment in a line: P. falciparum primary screening at three fixed concentrations. The class given is cell-based. The settings on record: average of at least three experiments; for activity at 1 µM / activity at 10 µM / activity at 100 µM: Plasmodium falciparum, read-out: Primary screening, parasite growth relative to the negative control; for activity at 1 µM: 3D7, compound at 1 µM; for activity at 10 µM: 3D7, compound at 10 µM; for activity at 100 µM: 3D7, compound at 100 µM.

A further data set concerns Vero cells. The experiment in a line: Vero cell toxicity assay (alamarBlue). Type of data set: cell-based, green monkey. To be noted: 4 days; minimum value of the 95% CI, except BNZ (mean (SD)). How it is done:
Human erythrocytes were purified from B+ Rh+ blood samples and maintained at 4 °C in incomplete RPMI medium. Vero (green monkey kidney epithelial cells), LLC-MK2 (Rhesus monkey kidney epithelial cells), and HepG2 (human liver epithelial cells) cultures were cultivated in DMEM supplemented with 1% penicillin–streptomycin (PS) and 10% heat-inactivated fetal bovine serum (FBS) at 37 °C, 5% CO2, and >95% humidity, as described in [31]. HepG2 cells were also supplemented with 10% non-essential amino acids. Vero and MK2 cells were passaged twice per week at 1:12 ratios, while HepG2 cells were passaged at a 1:8 ratio.
Vero and HepG2 cells were detached, centrifuged, and resuspended in DMEM without phenol red. Cell viability was checked upon cell counting with trypan blue staining. Then, Vero and HepG2 cells were diluted at a concentration of 5 × 10^5 and 3.2 × 10^5 cells per mL, respectively, before adding 100 µL per well to the 96-well plate. Each run contained its own negative (untreated cells) and positive (medium alone) controls. Plates were incubated at 37 °C for 4 days in the case of Vero, or 2 in the case of HepG2 cells. Assay readout was made by adding 50 µL per well of a PBS solution containing 10% alamarBlue reagent (Thermo Fisher Scientific); then, plates were incubated for another 6 h at 37 °C, before recording the fluorescence intensity with a Tecan Infinite M Nano+ reader (excitation: 530 nm, emission: 590 nm).
as §1
(In general: The colour change of resazurin is a common sign of viable cells or microbes.)

The subject of data set [2] is T. cruzi intracellular amastigotes. The experiment in a line: Antiamastigote growth inhibition assay. The class given is cell-based. The settings on record: intracellular amastigotes in Vero cells, mean (SD), read-out: T. cruzi IC50 b (antiamastigote assay). Here is the method:
Vero cells were seeded in T-175 flasks (5 × 10^6 cells per flask) in DMEM supplemented with 1% penicillin–streptomycin and 10% FBS, and cultured for 24 h. Then, cells were washed once with PBS, and free-swimming trypomastigotes (1 × 10^7 trypomastigotes per flask; MOI = 1) in assay medium were added and allowed 18 h to infect. After that, infected cell monolayers were washed with PBS and detached. Cells were counted and diluted to a concentration of 5 × 10^5 cells per mL, before adding 100 µL per well to test plates already containing the drugs dispensed as described above. In all cases, we included BNZ as control drug, and each plate contained its own negative (Vero cells and parasites) and positive (Vero cells) controls.
as §1

The mark [3] stands for this setting: compound at 10 µM, average of at least three independent experiments.

Read-outs that look alike come from different tables or passages of the source. Where only a bound is given, the exact number is not on record here.

For `CC(C)(C)n1c(-c2ccccc2)nc2c(OCc3ccccc3)ncnc21` [Compound 6D], in data set [1] (setting [3]), the “Primary screening, growth inhibition values at 10 µM” value amounted to 84.14. Further, in the data set on P. falciparum 3D7, the activity at 1 µM came out at 117%, the activity at 10 µM was 114% and the activity at 100 µM came to 13.2%. Besides, the “Vero Cells TC50” value with Vero cells was >150 µM. Also, the IC50 in data set [2] (Trypanosoma cruzi) was 3.78 µM.
With `c1ccc(CCn2c(-c3ccccc3)nc3c(OCc4ccccc4)ncnc32)cc1` [Compound 6g], the “Primary screening, growth inhibition values at 10 µM” value in data set [1] (setting [3]) stood at 87.76. The “Primary screening, parasite growth relative to the negative control” value is listed as 100.79% in the data set with P. falciparum 3D7 (compound at 1 µM), 94.94% in the data set on P. falciparum 3D7 (compound at 10 µM) and 24.45% in the data set with P. falciparum 3D7 (compound at 100 µM). Besides, the “Vero Cells TC50” value with Vero cells was >150 µM. Further, the IC50 in data set [2] was 19.6 µM.
In the case of `COC(=O)c1ccccc1-n1cc(COc2ncnc3c2nc(-c2ccccc2)n3N(C)C)nn1` [Compound 34], the activity at 100 µM came to 13.9% in data set [1] (Trypanosoma cruzi, TULAHUEN, read-out: Primary screening, growth inhibition values at 100 µM) and 43.2% in the data set with P. falciparum 3D7. Further, the activity at 1 µM in data set [1] (Trypanosoma cruzi, TULAHUEN, compound at 1 µM, average of at least three independent experiments, read-out: Primary screening, growth inhibition values at 1 µM) stood at 68%; with P. falciparum 3D7 it was 95.6%. Moreover, the activity at 10 µM worked out at 66.9% in data set [1] (Trypanosoma cruzi, TULAHUEN, compound at 10 µM, average of at least three independent experiments, read-out: Primary screening, growth inhibition values at 10 µM) and 85% with P. falciparum 3D7. In the data set on Vero cells, the “Vero Cells TC50” value is on record as >6000 µM. In data set [2] (Trypanosoma cruzi), the IC50 was 4.24 µM.

The term IC50 denotes the point on the concentration scale where inhibition reaches its midpoint.

(Values after paper PMC8308784, “Novel Purine Chemotypes with Activity against Plasmodium falciparum and Trypanosoma cruzi” (Pharmaceuticals, 2021).)
